Several values for one entry are separate records, joined by “and”; a condition that tells them apart may be missing. Equal values may be shown once.
What was measured:
HDQ-P1 [1] = details: 72 h
How it was run: (§1)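 A 20 µl suspension of breast cancer cells was placed in 384-well plates that already contained compound at 5 concentrations in 10-fold steps across a compound-specific 10,000-fold range, and the plates were left for 72 h. CellTox Green fluorescence at 485/520 nm gave cell death, and CellTiter-Glo luminescence, read after 10 min at room temperature, gave viability. Each plate was normalised to 0.1 % DMSO and a positive kill control. EC50 was fitted from the curves and censored at the top concentration.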

HCC1599 [2] = details: 72 h
How it was run: as §1

HCC1143 [3] = details: 72 h
How it was run: as §1

CAL-148 [4] = details: 72 h
How it was run: as §1

SK-BR-3 [5] = details: 72 h
How it was run: (§2)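 For viability, cells received 2.5 µl CellTiter-Blue for 2 h at 37 °C and fluorescence was read at 560/590 nm. Before this, breast cancer cell lines in 20 µl suspension had been incubated for 72 h on 384-well plates pre-loaded with compound dissolved in 5 µl medium. EC50 was obtained from a percent-inhibition dose-response fit censored at the highest concentration, after normalisation of each plate to vehicle and a positive kill control; rows with a zero drug sensitivity score were discarded.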

MDA-MB-468 [6] = details: 72 h
How it was run: as §2

BT-549 [7] = details: 72 h
How it was run: as §2

MDA-MB-231 [8] = details: 72 h
How it was run: as §2

MDA-MB-436 [9] = details: 72 h
How it was run: as §2

BT-474 [10] = details: 72 h
How it was run: as §2

CAL-120 = details: 72 h
How it was run: as §2

HDQ-P1 [11] = details: 72 h; remark: listed apart in the source
Procedure: (§3)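 Drug sensitivity and resistance testing (DSRT) of breast cancer cell lines in 384-well plates, 5 concentrations in 10-fold dilutions over a compound-specific 10,000-fold range. After 72 h, cytotoxicity was read by CellTox Green fluorescence and viability by CellTiter-Glo luminescence (multiplexed), normalised to DMSO and benzethonium chloride controls. EC50 is the inflection point of the fitted dose-response curve (bottom asymptote free, so it can be relative for partial curves) and is censored at the highest tested concentration. Rows with DSS 0 (no meaningful response) were excluded.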

CAL-85-1 [12] = details: 72 h
Procedure: as §3

CAL-51 [13] = details: 72 h
Procedure: as §3

MDA-MB-436 [14] = details: 72 h; remark: listed apart in the source
Procedure: as §3

BT-474 [15] = details: 72 h; remark: listed apart in the source
Procedure: as §3

HDQ-P1 [16] = details: 72 h; remark: listed apart in the source
How it was run: as §2

CAL-85-1 [17] = details: 72 h; remark: listed apart in the source
How it was run: as §2

CAL-51 [18] = details: 72 h; remark: listed apart in the source
How it was run: as §2

CAL-148 [19] = details: 72 h; remark: listed apart in the source
How it was run: as §2

SK-BR-3 [20] = test: normalised viability (% of control), CellTiter-Blue; higher = more viable cells (about 100 = DMSO control); details: incubation time: 72 h
How it was run: (§4)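 Compound dissolved in 5 µl medium was pre-loaded into 384-well plates, and breast cancer cell lines in 20 µl suspension were seeded on top and incubated 72 h. After adding 2.5 µl CellTiter-Blue reagent for 2 h at 37 °C, fluorescence was read at 560/590 nm. Plates were normalised to vehicle (100) and a positive kill control (0), with Z'-factor quality control. Each value is normalised viability at a single listed concentration from the series.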

DU-4475 [21] = test: as above; details: incubation time: 72 h
How it was run: as §4

MFM-223 [22] = test: as above; details: incubation time: 72 h
How it was run: as §4

HDQ-P1 [23] = test: as above; details: incubation time: 72 h
How it was run: as §4

BT-549 [24] = test: as above; details: incubation time: 72 h
How it was run: as §4

MDA-MB-231 [25] = test: as above; details: incubation time: 72 h
How it was run: as §4

HCC1143 [26] = test: as above; details: 10000 nM; incubation time: 72 h
How it was run: as §4

CAL-148 [27] = test: as above; details: incubation time: 72 h
How it was run: as §4

DU-4475 [28] = details: 72 h
How it was run: as §1

MFM-223 [29] = details: 72 h
How it was run: as §1

HCC1937 [30] = details: 72 h
How it was run: as §2

MFM-223 [31] = details: 72 h; remark: listed apart in the source
How it was run: as §2

HCC1599 [32] = details: 72 h; remark: listed apart in the source
How it was run: as §2

Hs578T = details: 72 h
How it was run: as §2

HCC1143 [33] = details: 72 h; remark: listed apart in the source
How it was run: as §2

MFM-223 [34] = details: 72 h; remark: listed apart in the source
Procedure: as §3

BT-549 [35] = details: 72 h; remark: listed apart in the source
Procedure: as §3

DU-4475 [36] = details: 72 h; remark: listed apart in the source
How it was run: as §2

HCC1937 [37] = details: 72 h; remark: listed apart in the source
Procedure: as §3

MDA-MB-453 = details: 72 h
Procedure: as §3

MDA-MB-468 [38] = details: 72 h; remark: listed apart in the source
Procedure: as §3

MDA-MB-231 [39] = details: 72 h; remark: listed apart in the source
Procedure: as §3

CAL-148 [40] = details: 72 h; remark: listed apart in the source
Procedure: as §3

| Compound | EC50, CellTiter-Glo (HDQ-P1 [1]) | EC50, CellTiter-Glo (HCC1143 [3]) | EC50, CellTiter-Glo (CAL-148 [4]) | EC50, CellTiter-Blue viability (SK-BR-3 [5]) | EC50, CellTiter-Blue viability (MDA-MB-468 [6]) | EC50, CellTiter-Blue viability (BT-549 [7]) | EC50, CellTiter-Blue viability (MDA-MB-231 [8]) | EC50, CellTiter-Blue viability (MDA-MB-436 [9]) | EC50, CellTiter-Blue viability (BT-474 [10]) | EC50, CellTiter-Blue viability (CAL-120) | EC50, CellTox Green (HDQ-P1 [11]) | EC50, CellTox Green (CAL-85-1 [12]) | EC50, CellTox Green (CAL-51 [13]) | EC50, CellTox Green (MDA-MB-436 [14]) | EC50, CellTox Green (BT-474 [15]) | EC50, CellTiter-Blue viability (HDQ-P1 [16]) | EC50, CellTiter-Blue viability (CAL-85-1 [17]) | EC50, CellTiter-Blue viability (CAL-51 [18]) | EC50, CellTiter-Blue viability (CAL-148 [19]) | normalised viability (SK-BR-3 [20]; 10000 nM) | further results |
| --- | --- | --- | --- | --- | --- | --- | --- | --- | --- | --- | --- | --- | --- | --- | --- | --- | --- | --- | --- | --- | --- |
| CN1CCN(CCOc2cc(OC3CCOCC3)c3c(Nc4c(Cl)ccc5c4OCO5)ncnc3c2)CC1 [Saracatinib] | 541 nM | 1330 nM | 2550 nM | 6750 nM | 1410 nM | 1510 nM | 13.2 nM | > 10000 nM | 1540 nM | 567 nM | 6610 nM | 2940 nM | 371 nM | 1620 nM | 8130 nM | 615 nM | 757 nM | 700 nM | 447 nM | 39.7% | EC50, CellTiter-Glo (HCC1599 [2]): 5900 nM; normalised viability (DU-4475 [21]; 100 nM): 98.9%; normalised viability (MFM-223 [22]; 10000 nM): 77.1%; normalised viability (HDQ-P1 [23]; 100 nM): 111%; normalised viability (BT-549 [24]; 10000 nM): 47.4%; normalised viability (MDA-MB-231 [25]; 10000 nM): 60.6%; normalised viability (HCC1143 [26]): 46.2%; normalised viability (CAL-148 [27]; 100 nM): 85.3% |
| CO[C@H]1C[C@@H]2CC[C@@H](C)[C@@](O)(O2)C(=O)C(=O)N2CCCC[C@H]2C(=O)O[C@H]([C@H](C)C[C@@H]2CC[C@@H](OCCO)[C@H](OC)C2)CC(=O)[C@H](C)/C=C(\C)[C@@H](O)[C@@H](OC)C(=O)[C@H](C)C[C@H](C)/C=C/C=C/C=C/1C [Everolimus] | 5.68 nM | 0.39 nM | 0.38 nM | 0.945 nM |  | 0.381 nM | 26.9 nM |  | 0.289 nM | 0.304 nM |  |  |  |  |  | 0.35 nM | 0.219 nM | 1.14 nM | 0.675 nM |  | EC50, CellTiter-Glo (DU-4475 [28]): 1.24 nM; EC50, CellTiter-Glo (MFM-223 [29]): 0.29 nM; EC50, CellTiter-Blue viability (HCC1937 [30]): 2.95 nM; EC50, CellTiter-Blue viability (MFM-223 [31]): 0.27 nM; EC50, CellTiter-Blue viability (HCC1599 [32]): 11.8 nM; EC50, CellTiter-Blue viability (Hs578T): 0.13 nM; EC50, CellTiter-Blue viability (HCC1143 [33]): 0.14 nM; EC50, CellTox Green (MFM-223 [34]): 8.31 nM; EC50, CellTox Green (BT-549 [35]): > 100 nM; EC50, CellTiter-Blue viability (DU-4475 [36]): 2.34 nM; normalised viability (SK-BR-3 [20]; 1000 nM): 55.1% and 36.7%; normalised viability (DU-4475 [21]; 10 nM): 64.3% and 57.3%; normalised viability (MFM-223 [22]; 1000 nM): 51.6% and 26.8%; normalised viability (HDQ-P1 [23]; 10 nM): 79.4% and 60.5%; normalised viability (BT-549 [24]; 1000 nM): 56.4% and 46.6%; normalised viability (MDA-MB-231 [25]; 1000 nM): 73.9% and 77.5%; normalised viability (CAL-148 [27]; 10 nM): 44.4% and 37.9% |
| CN(C)C[C@@H]1CCn2cc(c3ccccc32)C2=C(C(=O)NC2=O)c2cn(c3ccccc23)CCO1 [Ruboxistaurin] | 2720 nM | 9320 nM | 1750 nM | 2400 nM | 2690 nM | 8000 nM | 4700 nM | 505 nM | 2790 nM | 6140 nM | 5090 nM | 2320 nM | 1580 nM | 1000 nM | 370 nM | 3540 nM |  | 4800 nM | 4840 nM | 4% | EC50, CellTiter-Glo (DU-4475 [28]): 3790 nM; EC50, CellTiter-Glo (MFM-223 [29]): 3220 nM; EC50, CellTiter-Blue viability (HCC1937 [30]): 4090 nM; EC50, CellTiter-Blue viability (MFM-223 [31]): 1480 nM; EC50, CellTiter-Blue viability (HCC1599 [32]): 1730 nM; EC50, CellTiter-Blue viability (Hs578T): 8920 nM; EC50, CellTox Green (HCC1937 [37]): 7550 nM; EC50, CellTox Green (MDA-MB-453): 3790 nM; EC50, CellTox Green (MDA-MB-468 [38]): 2490 nM; EC50, CellTox Green (BT-549 [35]): 7220 nM; EC50, CellTox Green (MDA-MB-231 [39]): 2010 nM; EC50, CellTox Green (CAL-148 [40]): 999 nM; EC50, CellTiter-Blue viability (DU-4475 [36]): 2740 nM; normalised viability (DU-4475 [21]; 100 nM): 95.6%; normalised viability (MFM-223 [22]; 10000 nM): 30.1%; normalised viability (HDQ-P1 [23]; 100 nM): 83.1%; normalised viability (BT-549 [24]; 10000 nM): 43.7%; normalised viability (MDA-MB-231 [25]; 10000 nM): 27.6%; normalised viability (HCC1143 [26]): 94%; normalised viability (CAL-148 [27]; 100 nM): 111% |

Source: the supplement of paper PMC4862054
